Patent US12458021B2, “Microbiocidal derivatives” (SYNGENTA CROP PROTECTION AG, priority 2019, dated 2025)

Legend:
[1] = system: Mycosphaerella graminicola (Septoria tritici); assay: Mycosphaerella graminicola (Septoria tritici) / liquid culture (Septoria blotch); assay type: cell-based; conditions: Zymoseptoria tritici, PDB potato dextrose broth, 24° C., 4-5 days after application, read-out: control of Mycosphaerella graminicola (inhibition of growth, photometric)
Method in brief: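 Fungal growth inhibition was read photometrically 4-5 days after application. Compound was dosed from a DMSO solution into liquid cultures of spores in potato dextrose broth, incubated at 24° C.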

[2] = system: Magnaporthe grisea (Pyricularia oryzae); assay: whole plant or invertebrate; assay type: in vivo; conditions: foliar, read-out: control of Magnaporthe grisea (percent disease control compared to untreated)
[3] = system: Puccinia recondita f. sp. tritici; assay: Puccinia recondita f. sp. tritici / wheat / leaf disc preventative (brown rust); assay type: in vivo; conditions: foliar, wheat leaf segments cv. Kanzler, inoculated 1 day after application, assessed 7-9 days after application, read-out: control of Puccinia recondita f. sp. tritici, preventative (percent disease control compared to untreated)
Protocol: Example B11: Puccinia recondita f. sp. tritici/Wheat/Leaf Disc Preventative (Brown Rust) Wheat leaf segments cv. Kanzler are placed on agar in multiwell plates (24-well format) and sprayed with the formulated test compound diluted in water. The leaf disks are inoculated with a spore suspension of the fungus 1 day after application. The inoculated leaf segments are incubated at 19° C. and 75% rh under a light regime of 12 h light/12 h darkness in a climate cabinet and the activity of a compound is assessed as percent disease control compared to untreated when an appropriate level of disease damage appears in untreated check leaf segments (7-9 days after application). […] […]-190.

[4] = system: Monographella nivalis (Microdochium nivale); assay: Monographella nivalis (Microdochium nivale) / liquid culture (foot rot cereals); assay type: cell-based; conditions: PDB potato dextrose broth, 24° C., 4-5 days after application, read-out: control of Monographella nivalis (inhibition of growth, photometric)
Method in brief: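 Growth inhibition measured by photometry 4-5 days post-application at 24° C. Compound was dispensed as DMSO solution, then PDB broth containing conidia from cryogenic storage was added.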

[5] = system: Glomerella lagenarium (Colletotrichum lagenarium); assay: Glomerella lagenarium (Colletotrichum lagenarium) / liquid culture (anthracnose); assay type: cell-based; conditions: Colletotrichum orbiculare, PDB potato dextrose broth, 24° C., 3-4 days after application, read-out: control of Glomerella lagenarium (inhibition of growth, photometric)
Method in brief: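 Fungal growth inhibition measured photometrically 3-4 days post-application at 24° C. Spores were mixed directly into potato dextrose broth and dispensed onto test compound supplied in DMSO.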

[6] = system: Mycosphaerella arachidis (Cercospora arachidicola); assay: Mycosphaerella arachidis (Cercospora arachidicola) / liquid culture (early leaf spot); assay type: cell-based; conditions: PDB potato dextrose broth, 24° C., 4-5 days after application, read-out: control of Mycosphaerella arachidis (inhibition of growth, photometric)
Protocol: Example B8: Mycosphaerella arachidis (Cercospora arachidicola)/Liquid Culture (Early Leaf Spot) Conidia of the fungus from cryogenic storage are directly mixed into nutrient broth (PDB potato dextrose broth). After placing a (DMSO) solution of test compound into a microtiter plate (96-well format), the nutrient broth containing the fungal spores is added. The test plates are incubated at 24° C. and the inhibition of growth is determined photometrically 4-5 days after application. […] […]-180.

[7] = system: Blumeria graminis f. sp. tritici (Erysiphe graminis f. sp. tritici); assay: Blumeria graminis f. sp. tritici / wheat / leaf disc preventative (powdery mildew on wheat); assay type: in vivo; conditions: foliar, wheat leaf segments cv. Kanzler, inoculated 1 day after application, assessed 6-8 days after application, read-out: control of Blumeria graminis f. sp. tritici (percent disease control compared to untreated)
Source text: Example B4: Blumeria graminis f. sp. tritici (Erysiphe graminis f. sp. tritici)/Wheat/Leaf Disc Preventative (Powdery Mildew on Wheat) Wheat leaf segments cv. Kanzler are placed on agar in a multiwell plate (24-well format) and sprayed with the formulated test compound diluted in water. The leaf disks are inoculated by shaking powdery mildew infected plants above the test plates 1 day after application. […] […]-192.

[8] = system: Phaeosphaeria nodorum (Septoria nodorum); assay: Phaeosphaeria nodorum (Septoria nodorum) / wheat / leaf disc preventative (glume blotch); assay type: in vivo; conditions: Parastagonospora nodorum, foliar, wheat leaf segments cv. Kanzler, inoculated 2 days after application, assessed 5-7 days after application, read-out: control of Phaeosphaeria nodorum (percent disease control compared to untreated)
Protocol: Example B6: Phaeosphaeria nodorum (Septoria nodorum)/Wheat/Leaf Disc Preventative (Glume Blotch) Wheat leaf segments cv. Kanzler are placed on agar in a multiwell plate (24-well format) and sprayed with the formulated test compound diluted in water. The leaf disks are inoculated with a spore suspension of the fungus 2 days after application. The inoculated test leaf disks are incubated at 20° C. and 75% rh under a light regime of 12 h light/12 h darkness in a climate cabinet and the activity of a compound is assessed as percent disease control compared to untreated when an appropriate level of disease damage appears in untreated check leaf disks (5-7 days after application). […] […]-190.

Alternaria solani = Alternaria solani / tomato / leaf disc (early blight); assay type: in vivo; conditions: foliar, tomato leaf disks cv. Baby, inoculated 2 days after application, assessed 5-7 days after application, read-out: control of Alternaria solani (percent disease control compared to untreated)
Protocol: Example B1: Alternaria solani/Tomato/Leaf Disc (Early Blight) Tomato leaf disks cv. Baby are placed on agar in multiwell plates (24-well format) and sprayed with the formulated test compound diluted in water. The leaf disks are inoculated with a spore suspension of the fungus 2 days after application. The inoculated leaf disks are incubated at 23° C./21° C. […] […]-185.

Pyrenophora teres = Pyrenophora teres / barley / leaf disc preventative (net blotch); assay type: in vivo; conditions: foliar, barley leaf segments cv. Hasso, inoculated 2 days after application, assessed 5-7 days after application, read-out: control of Pyrenophora teres (disease control compared to untreated)
Protocol: Example B13: Pyrenophora teres/Barley/Leaf Disc Preventative (Net Blotch) Barley leaf segments cv. Hasso are placed on agar in a multiwell plate (24-well format) and sprayed with the formulated test compound diluted in water. The leaf segments are inoculated with a spore suspension of the fungus 2 days after application. The inoculated leaf segments are incubated at 20° C. and 65% rh under a light regime of 12 h light/12 h darkness in a climate cabinet and the activity of a compound is assessed as disease control compared to untreated when an appropriate level of disease damage appears in untreated check leaf segments (5-7 days after application). […] […]-185.

COc1ccc(Nc2cc(F)cc(F)c2)nc1C(=O)NCC(C)c1ccccc1 (stereo not drawn) [Compound P-23, 6-(3,5-difluoroanilino)-3-methoxy-N-(2-phenylpropyl)pyridine-2-carboxamide]
≥ 80%: inhibition at 20 ppm [1] | pest or weed control at 200 ppm [2] | pest or weed control at 200 ppm [3] | inhibition at 20 ppm [4] | inhibition at 20 ppm [5] | inhibition at 20 ppm [6]

COc1ccc(Nc2cc(F)cc(F)c2)nc1C(=O)NCc1ccccc1 [Compound P-25, N-benzyl-6-(3,5-difluoroanilino)-3-methoxy-pyridine-2-carboxamide]
≥ 80%: pest or weed control at 200 ppm [7] | pest or weed control at 200 ppm [8] | inhibition at 20 ppm [1] | pest or weed control at 200 ppm [2] | pest or weed control at 200 ppm [3] | inhibition at 20 ppm [4] | inhibition at 20 ppm [5]

COc1ccc(Nc2cc(F)cc(F)c2)nc1C(=O)NCCOc1ccc(F)cc1 [Compound P-27, 6-(3,5-difluoroanilino)-N-[2-(4-fluorophenoxy)ethyl]-3-methoxy-pyridine-2-carboxamide]
≥ 80%: pest or weed control at 200 ppm [8] | inhibition at 20 ppm [1] | pest or weed control at 200 ppm [2] | pest or weed control at 200 ppm [3] | inhibition at 20 ppm [4] | inhibition at 20 ppm [5] | inhibition at 20 ppm [6]

CC1(C)CCC1NC(=O)c1nc(Nc2cc(F)cc(F)c2)ccc1OC(F)F (stereo not drawn) [Compound P-46, 6-(3,5-difluoroanilino)-3-(difluoromethoxy)-N-(2,2-dimethylcyclobutyl)pyridine-2-carboxamide]
≥ 80%: pest or weed control at 200 ppm [8] | inhibition at 20 ppm [1] | pest or weed control at 200 ppm [2] | inhibition at 20 ppm [4] | inhibition at 20 ppm [5] | inhibition at 20 ppm [6]

COc1ccc(Nc2cc(F)cc(F)c2)nc1C(=O)NC1CCc2cc(C(F)(F)F)ccc21 (stereo not drawn) [Compound P-55, 6-(3,5-difluoroanilino)-3-methoxy-N-[5-(trifluoromethyl)indan-1-yl]pyridine-2-carboxamide]
≥ 80%: pest or weed control at 200 ppm (Alternaria solani) | pest or weed control at 200 ppm [8] | inhibition at 20 ppm [1] | pest or weed control at 200 ppm [2] | pest or weed control at 200 ppm [3] | inhibition at 20 ppm [4] | inhibition at 20 ppm [5] | inhibition at 20 ppm [6]

COc1ccc(Nc2cc(F)cc(F)c2)nc1C(=O)NC1CCc2ccc(C(F)(F)F)cc21 (stereo not drawn) [Compound P-56, 6-(3,5-difluoroanilino)-3-methoxy-N-[6-(trifluoromethyl)indan-1-yl]pyridine-2-carboxamide]
≥ 80%: pest or weed control at 200 ppm (Alternaria solani) | pest or weed control at 200 ppm [8] | inhibition at 20 ppm [1] | pest or weed control at 200 ppm [3] | inhibition at 20 ppm [4] | inhibition at 20 ppm [5] | inhibition at 20 ppm [6]

COc1ccc(Nc2cnsc2)nc1C(=O)NC1CCc2cc(C(F)(F)F)ccc21 (stereo not drawn) [Compound P-79, 6-(isothiazol-4-ylamino)-3-methoxy-N-[5-(trifluoromethyl)indan-1-yl]pyridine-2-carboxamide]
≥ 80%: inhibition at 20 ppm [1] | pest or weed control at 200 ppm [3] | inhibition at 20 ppm [4] | inhibition at 20 ppm [5] | inhibition at 20 ppm [6]

COc1ccc(Nc2cc(F)nc(F)c2)nc1C(=O)NC(C)CCCC(C)C (stereo not drawn) [Compound P-102, 6-[(2,6-difluoro-4-pyridyl)amino]-N-(1,5-dimethylhexyl)-3-methoxy-pyridine-2-carboxamide]
≥ 80%: pest or weed control at 200 ppm (Pyrenophora teres) | inhibition at 20 ppm [1] | pest or weed control at 200 ppm [2] | pest or weed control at 200 ppm [3] | inhibition at 20 ppm [4] | inhibition at 20 ppm [5] | inhibition at 20 ppm [6]

COc1ccc(Nc2cccc(C#N)c2)nc1C(=O)NC(C)(C)C [Compound P-146, N-tert-butyl-6-(3-cyanoanilino)-3-methoxy-pyridine-2-carboxamide]
≥ 80%: pest or weed control at 200 ppm (Alternaria solani) | pest or weed control at 200 ppm [8] | inhibition at 20 ppm [1] | pest or weed control at 200 ppm [2] | pest or weed control at 200 ppm [3] | inhibition at 20 ppm [4] | inhibition at 20 ppm [5]
